# Laboratory results taken from publication PMC12392461, “Beyond Estrogenicity: A Comparative Assessment of Bisphenol A and Its Alternatives in In Vitro Assays Questions Safety of Replacements” (Environmental Science & Technology, 2025).
# Like-named read-outs stand apart in the source and are kept apart here.
# Key:
# [1] = test system: SH-SY5Y cells; conditions: for IC10, linear transformed / IC10, linear / logIC10: NOI bioassay cytotoxicity, dosing range all; for IC10, linear: linear model; for logIC10: log-logistic model; for IC10, SH-S5Y5, NOI: cytotoxicity, NOI assay cells
# Description: Cell culture conditions and bioassay protocols including response detection are provided in Text S2.1–2.4 and Table S3. − Cell viability was determined from cell confluency using an IncuCyte S3 Live-Cell Analysis System (Sartorius AG, Essen, Germany) before and after exposure, except for SH-SY5Y cells (live–dead staining with Nuclear Green LcS1 and propidium iodide, Abcam, UK). For metabolic activation experiments, cell viability was assessed using the ToxBLAzer DualScreen Kit (Thermo Fisher Scientific) to capture the remaining toxicity in ERα-UAS-bla GripTite after treatment with the aCYP catalyst (details in Text S2.4). […]
# We measured the cytotoxicity of BPA and its alternatives in HEK293H (PPARγ), HEK293T (ERα), H4IIe (AhR CALUX), MCF7 (ARE/MMP), and differentiated SH-SY5Y cells (Table S6). […]
# medium, supplemented with 2% B-27 Supplement and 2 mM GlutaMAX Supplement. SH - SY5Y cells were differentiated with 10 µM all-trans retinoic acid prior to the assay.
# S2.2: Cell Seeding and Incubation. For all bioassays, cell suspensions in the respective assay medium were dispensed into each well of 384-well plates using a MultiFlo Dispenser (Biotek, (now Agilent), Winooski, VT, U.S.). After seeding, the plates were incubated at 37° C and 5% […]
# (§1) NYC, U.S.) for AhR: 3250 cells/well. Black Collagen I coated plates were used (Product No.
# (§2) S2.3: Chemical Dosing and Assay Analysis Procedures. The dosing procedure and high-throughput assay workflow have been described in detail before. 9 The dosing concentrations […]
# Stock solutions were then either added directly to the respective cell culture medium or evaporated under nitrogen, followed by replenishment with fresh medium. The final solvent content in each well was kept below 1% for methanol, 0% for acetonitrile.
# Dosing plates were prepared as 11 -step serial dilutions using a Hamilton Microlab Star robotic system (Hamilton, Bonaduz, Switzerland), and chemicals were dosed in duplicates by transferring 10 μL twice from the dosing plates to the cell plates . After quantifying cell confluency as described in S2. 4., the exposed cells were incubated at 37° C and 5% CO₂ for an additional 24 h. All chemicals were tested in all assays with at least three independent […]
# S2.4: Cell Viability Measurement s and bioanalytical protocols . The confluency as a measure of cell viability was determined with an IncuCyte S3 Live -Cell Analysis System (Sartorius AG, Essen, Germany). With this method the confluency of cells in a microscopy image are normalized to control wells without cells and compared before and after 24 hours of exposure.
# This method has been described previously 13. Cell viability of SH-SY5Y cells was measured […]
# propidium iodide (PI, Abcam, Cambridge, U.K.).14 Nuclear Green LCS1 is a membrane-permeable dye that stains the nuclei of all cells, whereas PI only enters cells with compromised membrane integrity (non-viable cells). After staining, live cells show green nuclei without red fluorescence, while dead cells display both green and red nuclear fluorescence due to PI […]
# intercalation. […]
# [2] = test system: Mitochondrial Membrane Potential; assay: cells; conditions: for EC10, linear: linear model
# From the text: All bioassay media components and the ERα-UAS-bla GripTite and PPARγ-UAS-bla cells were obtained from Thermo Fisher Scientific (Waltham, MA, USA). AREc32 reporter gene cells based on MCF7 were provided by C. Roland Wolf (Cancer Research UK); AhR CALUX cells (H4L7.5c2 derived from H4IIe) were provided by Michael Denison (UC Davis, USA); and SH-SY5Y cells were purchased from Sigma-Aldrich.
# Cell culture conditions and bioassay protocols including response detection are provided in Text S2.1–2.4 and Table S3. − Cell viability was determined from cell confluency using an IncuCyte S3 Live-Cell Analysis System (Sartorius AG, Essen, Germany) before and after exposure, except for SH-SY5Y cells (live–dead staining with Nuclear Green LcS1 and propidium iodide, Abcam, UK). For metabolic activation experiments, cell viability was assessed using the ToxBLAzer DualScreen Kit (Thermo Fisher Scientific) to capture the remaining toxicity in ERα-UAS-bla GripTite after treatment with the aCYP catalyst (details in Text S2.4).
# For ARE, the concentration that triggered an induction ratio of 1.5 (ECIR1.5) was used as the benchmark value, as detailed in Text S2.5. IC10 values also served as a threshold for data analysis in all assays; only concentrations below IC10 were considered when deriving EC10 or ECIR1.5. […]
# S2: Cell culture and bioassays
# S2.1: Cell Culturing Conditions
# All suppliers and sources are given in detail in SI-Excel S3. The bioassay media for the different assays were prepared as follows: Assay medium for ER alpha-UAS-bla GripTite (ERα) and […]
# 2% charcoal-stripped FBS, and 100 U/mL penicillin-streptomycin. MitoOxTox and AhR assay medium was comprised of 90% DMEM with GlutaMAX, supplemented with 10% FBS, and 100 U/mL penicillin-streptomycin. […]
# S2.2: Cell Seeding and Incubation. For all bioassays, cell suspensions in the respective assay medium were dispensed into each well of 384-well plates using a MultiFlo Dispenser (Biotek, (now Agilent), Winooski, VT, U.S.). After seeding, the plates were incubated at 37° C and 5% CO₂ for […]. The final cell densities and plate types were as follows: Black poly-D-lysine […]
# 6500 cells/well, ERα: 5000 cells/well. White 384-well plates with a clear bottom (Product No.
# as §1, §2
# Stock solutions were then either
# [3] = physchem; conditions: for Double negative form (pH = 7.40) / Negative form (pH = 7.40) / Neutral form (pH = 7.40) / αneutral % (fraction of neutral species): from experimental pKa; for pKa: pKa (Acid); for αneutral % (fraction of neutral species): pH 7.4
# Description: Physicochemical properties provide input parameters for the baseline toxicity model. Acidity constants (pK a) and octanol–water partition constants of the neutral species (K ow) were measured with a Sirius T instrument from Pion Inc. (Sussex, UK) (Text S1.2 and Table S1). A detailed description of the pK a and K ow measurements can be found in literature. , […]
# S1.2: pKa and log Kow measurements […]
# titrator (Pion Inc., Sussex, U.K.). A detailed description of the experimental procedure is available in the literature.1 In brief, each sample was prepared by mixing 5 µL of a 10 mM dimethyl sulfoxide (DMSO) stock solution with 25 µL of a phosphate buffer solution (14.4 mM […]
# A reference vial containing 5 µL of DMSO
# (Roth, A994-100 ML) and 25 µL of phosphate buffer was analyzed alongside each sample.
# The pKa values were determined using the automated UV-metric pKa protocol within the Sirius T3 Control software (version 2.0.0.0.). Each sample was subjected to three consecutive […]
# from 2 to 12 by stepwise addition of 0.5 M HCl or 0.5 M potassium hydroxide while recording […]
# UV absorbance. […]
# To ensure reproducibility, measurements were conducted on at least two
# [4] = Arec32, read-out: EC10, MMP (M)
# [5] = Arec32, read-out: EC10, linear transformed
compound,measurement,setting,value
"Oc1ccc(C(c2ccc(O)cc2)(C(F)(F)F)C(F)(F)F)cc1 [BPAF, 4,4'-(1,1,1,3,3,3-Hexafluoropropane-2,2-diyl)diphenol]","IC10, linear transformed",[1],6.64E-05
same,"IC10, linear",[1],7.35E-05
same,logIC10,[1],-4.18
same,"IC10, SH-S5Y5, NOI",[1],66.4 µM
same,EC10,"[2]; Arec32, read-out: EC10, MMP",5.32e-06 M
same,EC10,[2]; [4],5.32e-06 M
same,EC10,"[2]; Arec32, read-out: EC10, linear",3.05e-06 M
same,EC10,[2]; [5],5.27e-06 M
same,EC10,"[2]; Arec32, read-out: logEC10",5.37e-06 M
same,pKa (Acid),[3],8.73
same,Double negative form (pH = 7.40),[3],0.0417%
same,Negative form (pH = 7.40),[3],4.47%
same,Neutral form (pH = 7.40),[3],95%
same,pKa,[3],9.43
"CC(c1ccccc1)(c1ccc(O)cc1)c1ccc(O)cc1 [BPAP, 4,4'-(1-Phenylethylidene)bisphenol]","IC10, linear transformed",[1],1.06E-04
same,"IC10, linear",[1],no cytotoxicity
same,logIC10,[1],-3.97
same,"IC10, SH-S5Y5, NOI",[1],106 µM
same,EC10,[2]; [5],2.84e-05 M
same,"EC10, linear","[2]; MMP bioassay, dosing range all",no effect
same,logEC10,"[2]; MMP bioassay, dosing range all, log-logistic model",no effect
same,pKa (Acid),[3],9.99
same,Double negative form (pH = 7.40),[3],0.00503%
same,Negative form (pH = 7.40),[3],2%
same,Neutral form (pH = 7.40),[3],98%
same,pKa,[3],9.1
"CCC(C)(c1ccc(O)cc1)c1ccc(O)cc1 [BPB, 4,4'-(Butane-2,2-diyl)diphenol]","IC10, linear transformed",[1],1.67E-04
same,"IC10, linear",[1],2.31E-04
same,logIC10,[1],-3.78
same,Toxic ratio (TR) TRNOI,[1]; against baseline cytotoxicity,0.10
same,"IC10, SH-S5Y5, NOI",[1],167 µM
same,EC10,"[2]; Arec32, read-out: EC10, MMP",1.64e-05 M
same,EC10,[2]; [4],1.64e-05 M
same,EC10,"[2]; Arec32, read-out: EC10, linear",9.79e-06 M
same,EC10,[2]; [5],1.62e-05 M
same,EC10,"[2]; Arec32, read-out: logEC10",1.62e-05 M
same,Specificity ratio (SRbaseline) SRMMP,[2]; against baseline cytotoxicity,1.33
same,Specificity ratio (SRcytotoxicity) SRMMP,[2]; against experimental cytotoxicity,2.14
same,Relative effect potency REPMMP,[2]; relative to BPA,1.71
same,pKa (Acid),[3],10.33
same,Double negative form (pH = 7.40),[3],0.000865%
same,Negative form (pH = 7.40),[3],0.736%
same,Neutral form (pH = 7.40),[3],99%
same,αneutral % (fraction of neutral species),[3],99%
same,pKa,[3],9.53
"CC(c1ccc(O)cc1)c1ccc(O)cc1 [BPE, 4,4′-Ethylidenbisphenol]","IC10, linear transformed",[1],2.79E-04
same,"IC10, linear",[1],5.29E-04
same,logIC10,[1],-3.55
same,"IC10, SH-S5Y5, NOI",[1],279 µM
same,EC10,"[2]; Arec32, read-out: EC10, MMP",3.21e-05 M
same,EC10,[2]; [4],3.21e-05 M
same,EC10,[2]; [5],3.01e-05 M
same,EC10,"[2]; Arec32, read-out: logEC10",3.24e-05 M
same,"EC10, linear","[2]; MMP bioassay, dosing range all",no effect
same,pKa (Acid),[3],9.99
same,Double negative form (pH = 7.40),[3],0.00576%
same,Negative form (pH = 7.40),[3],2.24%
same,Neutral form (pH = 7.40),[3],98%
same,αneutral % (fraction of neutral species),[3],98%
same,pKa,[3],9.04
"Oc1ccc(Cc2ccc(O)cc2)cc1 [BPF, Bis(4-hydroxyphenyl)methane]","IC10, linear transformed",[1],5.69E-04
same,"IC10, linear",[1],5.56E-04
same,logIC10,[1],-3.24
same,"IC10, SH-S5Y5, NOI",[1],569 µM
same,EC10,"[2]; Arec32, read-out: EC10, linear",0.000167 M
same,EC10,[2]; [5],0.000167 M
same,EC10,"[2]; Arec32, read-out: logEC10",0.000166 M
same,pKa (Acid),[3],10.27
same,Double negative form (pH = 7.40),[3],0.000993%
same,Negative form (pH = 7.40),[3],0.736%
same,Neutral form (pH = 7.40),[3],99%
same,αneutral % (fraction of neutral species),[3],99%
same,pKa,[3],9.53
